Assay results reported in PMC10525456, “A Comparative Study on Cyclodextrin Derivatives in Improving Oral Bioavailability of Etoricoxib as a Model Drug: Formulation and Evaluation of Solid Dispersion-Based Fast-Dissolving Tablets” (Biomedicines, 2023).
≈ marks a conversion by molar mass, not a printed value. Where two headings read alike, the source gives them in different places.

Experiment: Saturation solubility
Assay type: physicochemical
Description: For 48 h, a known excess of the samples (etoricoxib solid dispersions, physical mixtures, and pure etoricoxib) containing 10 mg of etoricoxib was mixed with 10 mL of phosphate buffer (pH = 6.8) and 0.1 N HCL (pH = 1.2) and placed in a constant-temperature rotating water bath (Gyromax—Frederick, MD, USA) set to 50 rpm (37 ± 0.5 °C). The samples were then filtered, diluted, and analyzed at 233 nm using a UV-VIS spectrophotometer (Shimadzu). The concentration of etoricoxib was then estimated. The experiment was carried out three times.

Cc1ccc(-c2ncc(Cl)cc2-c2ccc(S(C)(=O)=O)cc2)cn1 [Pure Etoricoxib, 5-chloro-6’-methyl-3-[4-(methylsulfonyl)phenyl]-2,3-bipyridine]
solubility at 48 h (0.1 N HCl, pH 1.2, pure drug, 0.1 N HCL pH 1.2, 37 °C, read-out: Saturation solubility of pure etoricoxib in 0.1 N HCL pH(1.2)): 73.8 µg/mL (≈ 206 µM) | solubility at 48 h (phosphate buffer, pH 6.8, pure drug, phosphate buffer pH 6.8, 37 °C, read-out: Saturation solubility of pure etoricoxib in Phosphate buffer pH(6.8)): 71.1 µg/mL (≈ 198 µM) | Saturation solubility of pure etoricoxib in Phosphate buffer pH(6.8) (pure drug, phosphate buffer pH 6.8, 37 °C, 48 h): 71.12 μg/mL ± 1.23
